The values that follow come from patent US20240156854A1, “METHYLCOBALAMIN OPHTHALMIC PREPARATION AND USE THEREOF” (EYE INSTITUTE OF SHANDONG FIRST MEDICAL UNIVERSITY, priority 2022, published 2024).

Assay [1] deals with Mouse model of neurotrophic keratitis. Nature of the assay: Confocal laser microscope imaging of corneal nerves (β-tubulin III staining) in mouse model of neurotrophic keratitis. The class given is in vivo, C57BL/6 mice. To be noted: 14 d after the operation. The procedure:
(§1) (1) C57BL/6 mice, 6 to 8 weeks old, male, weighing 20 g to 25 g, were purchased from Beijing Vital River Laboratory Animal Technology Co., Ltd. Animal breeding was conducted in the Animal Laboratory of the Eye Institute of Shandong First Medical University. The temperature was controlled at 22±2° C., the humidity was controlled at 60±10%, a light and dark cycle was 12 h, and food and drink were given ad libitum.
(2) Experimental grouping: 30 of 6- to 8-week-old C57BL/6 male mice (body weight 20 g to 25 g) were randomly divided into 5 groups, 6 in each group, respectively: • 1. A control group • 2. An eye drop group with the control methylcobalamin ophthalmic drop Comparative Example 1 • 3. An eye drop group with a recombinant human nerve growth factor • 4. An eye drop group with methylcobalamin+proanthocyanidin (Example 1) • 5. A subconjunctival implantation group with a methylcobalamin hydrogel (Example 2) […]
Samples were taken 14 d after the operation. […] The cornea was washed 6 times with PBS, 10 min each time, the corneal epithelium was spread upward, and sealed with DAPI-containing anti-fluorescence quenching buffered glycerin, stored in the dark, and then imaged with a confocal laser microscope.

Assay [2] shares this test system. The experiment in a line: Slit lamp photography of the eye in mouse model of neurotrophic keratitis. In kind it is in vivo, C57BL/6 mice. The conditions noted are these: day 7, slit lamp; eye drops 4 times a day or subconjunctival hydrogel implant (about 0.02 mg). The method, then:
as §1
(2) Experimental grouping: 30 of 6- to 8-week-old C57BL/6 male mice (body weight 20 g to 25 g) were randomly divided into 5 groups, 6 in each group, respectively: • 1. A control group • 2. An eye drop group with the control methylcobalamin ophthalmic drop Comparative Example 1 • 3. An eye drop group with a recombinant human nerve growth factor • 4. An eye drop group with methylcobalamin+proanthocyanidin (Example 1) • 5. A subconjunctival implantation group with a methylcobalamin hydrogel (Example 2)
The mice were intraperitoneally anesthetized with a 0.6% pentobarbital sodium solution (1 ml/100 g), fixed on an operating table in a lateral position, and the bulbar conjunctiva was incised 90 degrees along the temporal corneoscleral limbus with Vannas scissors. The retroorbital venous plexus should not be damaged. […]

For “recombinant human nerve growth factor: recombinant human nerve growth factor eye drops, comparator group”, the “regeneration of corneal nerve endings” value in assay [1] is on record as “regenerated”. In addition, the corneal neovascularization entry in assay [2] is given as “not obvious”.
